Where two headings read alike, the source gives them in different places.
Experiments:
[1] = target: T1, 5-HT1A serotonin receptor (Rattus norvegicus, UniProt P19327); assay: inhibition of 5-HT1A serotonin receptor binding (3H-8-OH-DPAT); design: species or system male Sprague Dawley rats; conditions: rat hippocampal tissue; for inhibition at 0.1 µM: at 100 nM
T1 construct: Hippocampal tissue from male Sprague Dawley rats is dissected and homogenized; from tissue; host or cells: hippocampus of male Sprague Dawley rats, membrane homogenate
T1 sequence (P19327 1-422): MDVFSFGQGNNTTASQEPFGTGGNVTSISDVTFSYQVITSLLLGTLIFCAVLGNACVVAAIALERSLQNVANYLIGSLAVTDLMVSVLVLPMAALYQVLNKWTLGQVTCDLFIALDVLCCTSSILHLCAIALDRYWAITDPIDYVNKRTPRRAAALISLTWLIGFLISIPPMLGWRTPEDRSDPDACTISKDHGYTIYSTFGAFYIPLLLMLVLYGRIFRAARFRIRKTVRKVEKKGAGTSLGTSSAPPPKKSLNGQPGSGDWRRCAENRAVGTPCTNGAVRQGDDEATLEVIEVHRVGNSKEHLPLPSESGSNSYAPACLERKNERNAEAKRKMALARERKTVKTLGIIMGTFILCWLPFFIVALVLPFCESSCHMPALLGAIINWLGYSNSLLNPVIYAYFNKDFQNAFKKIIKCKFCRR
Protocol: The assay is carried out as follows: Hippocampal tissue from male Sprague Dawley rats is dissected and homogenized on ice in 40 volumes of buffer A (50 mM Tris HCl, pH = 7.7) using a Polytron homogenizer at setting 5 for 3 x 15 second bursts. The homogenate is then centrifuged at 20,000 rpm (RC5-B; 50,000 g) and the supernatant discarded. The pellet is resuspended in 40 volumes of the same buffer and incubated at 37°C for 10 minutes to aid in the removal of endogenous serotonin. The homogenate is then centrifuged (as above) and the supernatant discarded. The pellet is then resuspended in 100 volumes of buffer B (50 mM Tris HCl, pH = 7.7 containing 0.1% ascorbate, 10 µM pargyline and 4 mM CaCl₂) and sonicated. An aliquot is taken for protein determination by the Lowry method and the remainder stored frozen at -70°C until used.
The homogenate (50 µL; 0.4-0.6 mg protein/sample) is incubated with 100 µL (1.5-1.8 nM) ³H-8-hydroxy-2-(di-n-propylamino)tetraline (³H-8-OH-DPAT) in a final volume of 2 mL of buffer for 10 minutes at 37°C. At the end of the incubation, 3 mL of cold buffer A are added to each tube, and the contents rapidly filtered through Whatman GF/B glass filters. The filters are then rapidly washed 2 times with 3 mL of the same buffer, placed in scintillation vials, and shaken for 15 minutes with 10 mL of Hydrofluor (National Diagnostics) scintillation cocktail. The vials are then counted in a Packard 460 CD scintillation counter.
Specific binding is defined as total binding less binding in the presence of excess unlabeled serotonin (1 µM). Binding in the presence of various concentrations of test drug is expressed as a percent of specific binding when no drug is present. […] Linear regression analysis then yields a straight line with 95% confidence limits from which an IC₅₀ can be inversely predicted.

5-HT₂ = target: T2, 5-HT₂ (Rattus norvegicus, UniProt P14842); assay: 5-HT2 inhibition of 3H-spiroperidol binding, brain cortex homogenate; conditions: read-out: % Inhibition at 1 µM 5-HT₂
T2 construct: employing rat brain cortex homogenate as the receptor tissue; from tissue; host or cells: rat brain cortex, membrane homogenate
T2 sequence (P14842 whole entry): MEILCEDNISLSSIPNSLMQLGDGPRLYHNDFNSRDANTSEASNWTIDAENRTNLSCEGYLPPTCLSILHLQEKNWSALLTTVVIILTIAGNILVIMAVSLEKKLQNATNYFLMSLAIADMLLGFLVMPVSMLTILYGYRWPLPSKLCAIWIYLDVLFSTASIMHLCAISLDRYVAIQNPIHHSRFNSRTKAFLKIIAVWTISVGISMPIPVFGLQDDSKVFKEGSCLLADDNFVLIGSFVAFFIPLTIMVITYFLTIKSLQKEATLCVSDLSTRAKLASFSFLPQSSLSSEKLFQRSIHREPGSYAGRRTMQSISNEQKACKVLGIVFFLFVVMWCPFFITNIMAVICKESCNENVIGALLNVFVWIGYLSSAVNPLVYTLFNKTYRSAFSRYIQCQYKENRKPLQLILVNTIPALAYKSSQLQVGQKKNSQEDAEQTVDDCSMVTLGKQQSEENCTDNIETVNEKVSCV

M1 muscarinic receptor = target: T3, M1 muscarinic receptor (Rattus norvegicus, UniProt P08482); assay: M1 muscarinic receptor binding ([3H] pirenzipine, hippocampus tissue)
T3 construct: from tissue; host or cells: rat hippocampus, membrane fraction
T3 sequence (P08482 1-460): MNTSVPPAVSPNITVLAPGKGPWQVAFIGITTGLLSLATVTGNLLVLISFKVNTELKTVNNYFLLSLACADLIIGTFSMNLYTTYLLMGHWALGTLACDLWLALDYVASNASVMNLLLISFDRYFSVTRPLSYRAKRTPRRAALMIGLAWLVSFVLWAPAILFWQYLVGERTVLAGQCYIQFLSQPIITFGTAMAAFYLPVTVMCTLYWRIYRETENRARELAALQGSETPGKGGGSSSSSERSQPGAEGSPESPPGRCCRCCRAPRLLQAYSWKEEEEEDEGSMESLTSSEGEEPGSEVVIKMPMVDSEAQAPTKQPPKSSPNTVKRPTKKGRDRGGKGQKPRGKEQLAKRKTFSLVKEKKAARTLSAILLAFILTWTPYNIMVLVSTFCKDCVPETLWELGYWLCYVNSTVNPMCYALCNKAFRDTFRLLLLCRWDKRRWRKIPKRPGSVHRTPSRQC
Protocol: The M1 muscarinic receptor binding properties of the compounds of this invention were established as follows:
The resulting pellet is resuspended in the original volume of 0.32 M aqueous sucrose. The sample is then diluted 1:2 in 10 mM Na₂HPO₄/KH₂PO₄ buffer (pH = 7.4). A 100 µL sample of the buffered tissue suspension is incubated at 25°C for 60 minutes in the dark with 10 µL of test compound or vehicle for control and [³H] pirenzipine (0.5 nM, 0.04 µCi) q.s. 1 milliliter with the buffer solution. Atropine sulfate (2 µM) is added to half the samples being processed. Binding is terminated by vacuum filtration onto Whatman GF/B filters which are washed three times with the buffer solution (3 ml/wash, 4°C). […] Specific [³H] PZ binding is defined as total binding minus binding in the presence of 2 µM atropine sulfate.

M2 receptor = target: T4, M2 receptor (Rattus norvegicus, UniProt P10980); assay: M2 receptor binding ([3H] quinuclidinyl benzilate, cerebellum tissue); conditions: [3H] quinuclidinyl benzilate 0.23 nM, read-out: IC₅₀for M₂
T4 sequence (P10980 1-466): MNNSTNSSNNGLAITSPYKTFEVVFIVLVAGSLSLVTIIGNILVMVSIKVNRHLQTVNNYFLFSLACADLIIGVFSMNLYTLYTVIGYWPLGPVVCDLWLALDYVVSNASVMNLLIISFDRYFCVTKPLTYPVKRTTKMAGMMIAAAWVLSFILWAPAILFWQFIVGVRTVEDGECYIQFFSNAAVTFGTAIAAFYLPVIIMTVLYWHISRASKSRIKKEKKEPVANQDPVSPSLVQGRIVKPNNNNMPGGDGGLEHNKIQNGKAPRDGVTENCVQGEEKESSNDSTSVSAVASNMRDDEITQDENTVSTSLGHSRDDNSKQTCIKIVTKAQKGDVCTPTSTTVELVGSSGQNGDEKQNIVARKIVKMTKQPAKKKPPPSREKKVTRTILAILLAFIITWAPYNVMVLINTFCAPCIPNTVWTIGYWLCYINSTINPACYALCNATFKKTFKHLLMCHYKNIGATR

[2] = at 1 µM, rat brain cortex homogenate, 3H-spiroperidol

Row | SMILES | inhibition at 1 µM [1] [%] | other results
1 | O=C1CC2(CCCC2)CC(=O)N1CCCCN1CCN(c2ncccn2)CC1 [Buspirone, reference compound] | 94 | 
2 | COc1ccccc1N1CCN(CCCNC(=O)C23CC4CC(CC(C4)C2)C3)CC1 [Example 1, N-[3-[4-(2-Methoxyphenyl)-1-piperazinyl]propyl]tricyclo[3.3.1.1^3,7]decan-1-carboxamide] | 98 | inhibition at 1 µM (5-HT₂; [2]): 92%; Ki [1]: 1 nM
3 | O=C(NCCN1CCN(c2ncccn2)CC1)C12CC3CC(CC(C3)C1)C2 [Example 2, N-[2-[4-(2-Pyrimidyl)-1-piperazinyl]ethyl]tricyclo[3.3.1.1^3,7]decane-1-carboxamide] | 97 | inhibition at 1 µM (5-HT₂; [2]): 91%; Ki [1]: 1 nM
4 | COc1ccccc1N1CCN(CCNC(=O)C23CC4CC(CC(C4)C2)C3)CC1 [Example 3, N-[2-[4-(2-Methoxyphenyl)-1-piperazinyl]ethyl]tricyclo[3.3.1.1^3,7]decane-1-carboxamide] | 97 | 
5 | O=C(NCCN1CCN(c2cccc(Cl)c2)CC1)C12CC3CC(CC(C3)C1)C2 [Example 4, N-[2-[4-(3-Chlorophenyl)-1-piperazinyl]ethyl]tricyclo[3.3.1.1^3,7]decane-1-carboxamide] | 100 | 
6 | O=C(NCCN1CCN(c2ncccn2)CC1)c1cc2ccccc2o1 [Example 5, N-[2-[4-(2-Pyrimidyl)-1-piperazinyl]ethyl]benzofurane-2-carboxamide] | 83 | 
7 | COc1ccccc1N1CCN(CCCNC(=O)c2cc3ccccc3o2)CC1 [Example 6, N-[3-[4-(2-Methoxyphenyl)-1-piperazinyl]propyl]benzofurane-2 carboxamide] | 94 | 
8 | COc1ccccc1N1CCN(CCCNC(=O)c2cc3ccccc3[nH]2)CC1 [Example 7, N-[3-[4-(2-Methoxyphenyl)-1-piperazinyl]propyl]-(1H)-indole-2 carboxamide] | 91 | 
9 | O=C(NCCCN1CCN(c2cccc(Cl)c2)CC1)C12CC3CC(CC(C3)C1)C2 [Example 8, N-[3-[4-(3-Chlorophenyl)-1-piperazinyl]propyl]tricyclo[3.3.1.1^3,7]decane-1-carboxamide] | 94 | 
10 | CC12CC3CC(C1)CC(CC(=O)NCCN1CCN(c4ncccn4)CC1)(C3)C2 [Example 9, N-[2-[4-(2-Pyrimidyl)-1-piperazinyl]ethyl]-3-methyltricyclo[3.3.1.1^3,7]decane-1-acetic Acid Carboxamide] | 93 | 
11 | O=C(NCCCN1CCN(c2ncccn2)CC1)C12CC3CC(CC(C3)C1)C2 [Example 10, N-[3-[4-(2-Pyrimidyl)-1-piperazinyl]propyl]tricyclo[3.3.1.1^3,7]decane-1-carboxamide] | 82 | 
12 | CC12CC3CC(C1)CC(CC(=O)NCCN1CCN(c4cccc(Cl)c4)CC1)(C3)C2 [Example 11, N-[2-[4-(3-Chlorophenyl)-1-piperazinyl]ethyl]-3-methyltricyclo[3.3.1.1^3,7]decane-1-acetic Acid Carboxamide] | 91 | 
13 | COc1ccccc1N1CCN(CCNC(=O)CC23CC4CC(CC(C)(C4)C2)C3)CC1 [Example 12, N-[2-[4-(2-Methoxyphenyl)-1-piperazinyl]ethyl]-3-methyltricyclo[3.3.1.1^3,7]decane-1-acetic Acid Carboxamide] | 98 | 
14 | O=C(NCCN1CCN(c2ncccn2)CC1)C12CC3CC(CC1C3)C2 [Example 13, N-[2-[4-(2-Pyrimidyl)-1-piperazinyl]ethyl]hexahydro-2,5-methanopentalene-3a(1H)-carboxamide] | 97 | 
15 | COc1ccccc1N1CCN(CCNC(=O)C23CC4CC(CC2C4)C3)CC1 [Example 14, N-[2-[4-(2-Methoxyphenyl)-1-piperazinyl]ethyl]hexahydro-2,5-methanopentalene-3a(1H)-carboxamide] |  | inhibition at 0.1 µM [1]: 100%
16 | O=C(NCCN1CCN(c2cccc(Cl)c2)CC1)C12CC3CC(CC1C3)C2 [Example 15, N-[2-[4-(3-Chlorophenyl)-1-piperazinyl]ethyl]hexahydro-2,5-methanopentalene-3a(1H)-carboxamide] |  | IC50 (M1 muscarinic receptor; rat hippocampus, [3H] pirenzipine 0.5 nM, read-out: IC₅₀for M₁): 240 nM; M₂/M₁ Ratio (M1 muscarinic receptor; ratio of IC50 for M2 to IC50 for M1): 46; IC50 (M2 receptor): 11000 nM; inhibition at 0.1 µM [1]: 99%
17 | O=C(NCCCN1CCN(c2ncccn2)CC1)C12CC3CC(CC1C3)C2 [Example 17, N-[3-[4-(2-Pyrimidyl)-1-piperazinyl]propyl]hexahydro-2,5-methanopentalene-3a(1H)-carboxamide] | 88 | Ki [1]: 67 nM
18 | COc1ccccc1N1CCN(CCCNC(=O)C23CC4CC(CC2C4)C3)CC1 [Example 18, N-[3-[4-(2-Methoxyphenyl)-1-piperazinyl]propyl]hexahydro-2,5-methanopentalene-3a(1H)-carboxamide] | 99 | 
19 | O=C(NCCCN1CCN(c2cccc(Cl)c2)CC1)C12CC3CC(CC1C3)C2 [Example 19, N-[3-[4-(3-Chlorophenyl)-1-piperazinyl]propyl]hexahydro-2,5-methanopentalene-3a(1H)-carboxamide] |  | inhibition at 0.1 µM [1]: 75%; Ki [1]: 20 nM
20 | CC1(C)CC(=O)N(CCCCN2CCN(c3ncccn3)CC2)C(=O)C1 [Gepirone, 4,4-dimethyl-1-[4-[4-(2-pyrimidinyl)-1-piperazinyl]-butyl]-2,6-piperidinedione, reference compound] |  | inhibition at 1 µM (5-HT₂): 20%

From patent EP0343961B1, “Aryl- and heteroaryl piperazinyl carboxamides having central nervous system activity” (priority 1988, dated 1989)
